# Reference: patent publication US10800785B2, “Substituted pyrrolo[2,3-d]pyridazin-4-ones and pyrazolo[3,4-d]pyridazin-4-ones as protein kinase inhibitors” (Shanghai Fochon Pharmaceutical Co., Ltd., priority 2016, dated 2020)
# System: DOHH2 cells
# Test: Cell proliferation assay (MTS) in DOHH2 cells, mechanism-based assay for BTK inhibition
# Conditions: Homo sapiens, DOHH-2, 120 h incubation, 5000 cells/well
# Source text: Cell Proliferation Assays
# MTS testing kit was purchased from Promega. The DMEM, Fetal bovine serum and Penicillin-Streptomycin were purchased from Gibco. Dimethyl sulfoxide (DMSO) was purchased from Sigma.
# To investigate whether a compound is able to inhibit the activity of BTK in cells, a mechanism-based assay using DOHH2 (DSMZ catalog#: ACC47) and Mino (ATCC® Number CRL-3000™) cells was developed. In this assay, inhibition of BTK was detected by the inhibition of DOHH2 and Mino cell proliferations. DOHH2 or Mino cells were cultured in culture flasks to 40-80% confluence in RPMI-1640 plus 10% fetal bovine serum. C ells were collected and plated onto 96-well plates at desired cell density (DOHH2: 5000 cells/well; Mino: 10000 cells/well). Plates were incubated overnight at 37° C., with 5% CO2 to adhere. Compounds were added to the plates, and the final compound concentrations were 10000, 3333, 1111, […], 41, 14, 4.6 and 1.5 nM. Plates were placed at 37° C., with 5% CO2 for 120 h (DOHH2) or 72 h (Mino). 20 μl MTS/100 μl medium mixture solution were added to each well and the plates were incubated for exactly 2 hours. The reaction was stopped by adding 25 μl 10% SDS per well.
# Select compounds prepared as described above were assayed according to the biological procedures described herein.
row,SMILES,IC50
1,"CC#CC(=O)N1CC[C@@H](c2cn(-c3ccc(Oc4ccccc4F)cc3)c3c(N)n[nH]c(=O)c23)C1 [Example 75, (S)-7-amino-3-(1-(but-2-ynoyl)pyrrolidin-3-yl)-1-(4-(2-fluorophenoxy)phenyl)-1,5-dihydro-4H-pyrrolo[2,3-d]pyridazin-4-one]",383 nM
2,"CC#CC(=O)N1CC[C@H](c2cn(-c3ccc(Oc4ccccc4F)cc3)c3c(N)n[nH]c(=O)c23)C1 [Example 76, (R)-7-amino-3-(1-(but-2-ynoyl)pyrrolidin-3-yl)-1-(4-(2-fluorophenoxy)phenyl)-1,5-dihydro-4H-pyrrolo[2,3-d]pyridazin-4-one]",124 nM
3,"CC#CC(=O)N1CCC[C@@H](c2nn(-c3ccc(Oc4ccccc4F)cc3)c3c(N)n[nH]c(=O)c23)C1 [Example 77, (R)-7-amino-3-(1-(but-2-ynoyl)piperidin-3-yl)-1-(4-(2-fluorophenoxy)phenyl)-1,5-dihydro-4H-pyrazolo[3,4-d]pyridazin-4-one]",666 nM
4,"CC#CC(=O)N1CCC[C@@H](c2cn(-c3ccc(Oc4ccccc4F)cc3)c3c(N)n[nH]c(=O)c23)C1 [Example 79, (S)-7-amino-3-(1-(but-2-ynoyl)piperidin-3-yl)-1-(4-(2-fluorophenoxy)phenyl)-1,5-dihydro-4H-pyrrolo[2,3-d]pyridazin-4-one]",164 nM
5,"CC#CC(=O)N1CCC[C@H](c2cn(-c3ccc(Oc4ccccc4F)cc3)c3c(N)n[nH]c(=O)c23)C1 [Example 80, (R)-7-amino-3-(1-(but-2-ynoyl)piperidin-3-yl)-1-(4-(2-fluorophenoxy)phenyl)-1,5-dihydro-4H-pyrrolo[2,3-d]pyridazin-4-one]",450 nM
6,"CC#CC(=O)N1CC[C@H](c2nn(-c3ccc(Oc4c(F)cccc4F)cc3)c3c(N)n[nH]c(=O)c23)C1 [Example 82, (S)-7-amino-3-(1-(but-2-ynoyl)pyrrolidin-3-yl)-1-(4-(2,6-difluorophenoxy)phenyl)-1,5-dihydro-4H-pyrazolo[3,4-d]pyridazin-4-one]",687 nM
7,"CC#CC(=O)N1CC[C@@H](c2cn(-c3ccc(Oc4c(F)cccc4F)cc3)c3c(N)n[nH]c(=O)c23)C1 [Example 83, (S)-7-amino-3-(1-(but-2-ynoyl)pyrrolidin-3-yl)-1-(4-(2,6-difluorophenoxy)phenyl)-1,5-dihydro-4H-pyrrolo[2,3-d]pyridazin-4-one]",456 nM
8,"CC#CC(=O)N1CC[C@H](c2cn(-c3ccc(Oc4c(F)cccc4F)cc3)c3c(N)n[nH]c(=O)c23)C1 [Example 84, (R)-7-amino-3-(1-(but-2-ynoyl)pyrrolidin-3-yl)-1-(4-(2,6-difluorophenoxy)phenyl)-1,5-dihydro-4H-pyrrolo[2,3-d]pyridazin-4-one]",369 nM
9,"CC#CC(=O)N1CCC[C@@H](c2nn(-c3ccc(Oc4c(F)cccc4F)cc3)c3c(N)n[nH]c(=O)c23)C1 [Example 85, (R)-7-amino-3-(1-(but-2-ynoyl)piperidin-3-yl)-1-(4-(2,6-difluorophenoxy)phenyl)-1,5-dihydro-4H-pyrazolo[3,4-d]pyridazin-4-one]",435 nM
10,"CC#CC(=O)N1CCC[C@@H](c2cn(-c3ccc(Oc4c(F)cccc4F)cc3)c3c(N)n[nH]c(=O)c23)C1 [Example 87, (S)-7-amino-3-(1-(but-2-ynoyl)piperidin-3-yl)-1-(4-(2,6-difluorophenoxy)phenyl)-1,5-dihydro-4H-pyrrolo[2,3-d]pyridazin-4-one]",265 nM
11,"CC#CC(=O)N1CCC[C@H](c2cn(-c3ccc(Oc4c(F)cccc4F)cc3)c3c(N)n[nH]c(=O)c23)C1 [Example 88, (R)-7-amino-3-(1-(but-2-ynoyl)piperidin-3-yl)-1-(4-(2,6-difluorophenoxy)phenyl)-1,5-dihydro-4H-pyrrolo[2,3-d]pyridazin-4-one]",432 nM
12,"C=CC(=O)N1CC[C@@H](c2nn(-c3ccc(C(=O)Nc4ccccn4)cc3)c3c(N)n[nH]c(=O)c23)C1 [Example 90, (R)-4-(3-(1-acryloylpyrrolidin-3-yl)-7-amino-4-oxo-4,5-dihydro-1H-pyrazolo[3,4-d]pyridazin-1-yl)-N-(pyridin-2-yl)benzamide]",580 nM
13,"COC/C=C/C(=O)N1CC[C@@H](c2cn(-c3ccc(Oc4ccccc4)cc3)c3c(N)n[nH]c(=O)c23)C1 [Example 91, (S,E)-7-amino-3-(1-(4-methoxybut-2-enoyl)pyrrolidin-3-yl)-1-(4-phenoxyphenyl)-1,5-dihydro-4H-pyrrolo[2,3-d]pyridazin-4-one]",640 nM
14,"COC/C=C/C(=O)N1CC[C@@H](c2cn(-c3ccc(Oc4ccccc4F)cc3)c3c(N)n[nH]c(=O)c23)C1 [Example 92, (S,E)-amino-1-(4-(2-fluorophenoxy)phenyl)-3-(1-(4-methoxybut-2-enoyl)pyrrolidin-3-yl)-1,5-dihydro-4H-pyrrolo[2,3-d]pyridazin-4-one]",649 nM
15,"CN(C)C/C=C/C(=O)N1CC[C@@H](c2cn(-c3ccc(Oc4ccccc4)cc3)c3c(N)n[nH]c(=O)c23)C1 [Example 93, (S,E)-7-amino-3-(1-(4-(dimethylamino)but-2-enoyl)pyrrolidin-3-yl)-1-(4-phenoxyphenyl)-1,5-dihydro-4H-pyrrolo[2,3-d]pyridazin-4-one]",239 nM
16,"CN(C)C/C=C/C(=O)N1CC[C@@H](c2cn(-c3ccc(Oc4ccccc4F)cc3)c3c(N)n[nH]c(=O)c23)C1 [Example 94, (S,E)-7-amino-3-(1-(4-(dimethylamino)but-2-enoyl)pyrrolidin-3-yl)-1-(4-(2-fluorophenoxy)phenyl)-1,5-dihydro-4H-pyrrolo[2,3-d]pyridazin-4-one]",247 nM
17,"Nc1n[nH]c(=O)c2c([C@@H]3CCN(C(=O)/C=C/[C@H]4CCN4)C3)cn(-c3ccc(Oc4ccccc4)cc3)c12 [Example 97, 7-amino-3-((S)-1-((E)-3-((R)-azetidin-2-yl)acryloyl)pyrrolidin-3-yl)-1-(4-phenoxyphenyl)-1,5-dihydro-4H-pyrrolo[2,3-d]pyridazin-4-one]",701 nM
18,"COC/C=C/C(=O)N1CCC[C@@H](c2cn(-c3ccc(Oc4ccccc4)cc3)c3c(N)n[nH]c(=O)c23)C1 [Example 101, (S,E)-7-amino-3-(1-(4-methoxybut-2-enoyl)piperidin-3-yl)-1-(4-phenoxyphenyl)-1,5-dihydro-4H-pyrrolo[2,3-d]pyridazin-4-one]",208 nM
19,"COC/C=C/C(=O)N1CCC[C@@H](c2cn(-c3ccc(Oc4ccccc4F)cc3)c3c(N)n[nH]c(=O)c23)C1 [Example 102, (S,E)-7-amino-1-(4-(2-fluorophenoxy)phenyl)-3-(1-(4-methoxybut-2-enoyl)piperidin-3-yl)-1,5-dihydro-4H-pyrrolo[2,3-d]pyridazin-4-one]",319 nM
20,"CN(C)C/C=C/C(=O)N1CCC[C@@H](c2cn(-c3ccc(Oc4ccccc4)cc3)c3c(N)n[nH]c(=O)c23)C1 [Example 103, (S,E)-7-amino-3-(1-(4-(dimethylamino)but-2-enoyl)piperidin-3-yl)-1-(4-phenoxyphenyl)-1,5-dihydro-4H-pyrrolo[2,3-d]pyridazin-4-one]",97 nM
21,"CN(C)C/C=C/C(=O)N1CCC[C@@H](c2cn(-c3ccc(Oc4ccccc4F)cc3)c3c(N)n[nH]c(=O)c23)C1 [Example 104, (S,E)-7-amino-3-(1-(4-(dimethylamino)but-2-enoyl)piperidin-3-yl)-1-(4-(2-fluorophenoxy)phenyl)-1,5-dihydro-4H-pyrrolo[2,3-d]pyridazin-4-one]",151 nM
